Activity and inhibition data for five molecules are collected here from ChEMBL document CHEMBL1158150, “Inhibition of reverse transcriptase activity by benzophenanthridine alkaloids” (J Nat Prod, 1979).

The structures appear in SMILES notation. Activity calls are given as the source filed them. The rule behind the calls is not given here.

In assay [1] the test system is Avian myeloblastosis virus. In words: Inhibition of AMV reverse transcriptase assessed as [3H]TTP incorporation at 5 ug by toluene-based scintillation fluid counting in presence of 2 to 20 ug poly rA.oligo dT template primer.
Assay [2] relates to Avian myeloblastosis virus. The assay can be described thus: Inhibition of AMV reverse transcriptase assessed as [3H]TTP incorporation by toluene-based scintillation fluid counting in presence of 0.50 umole MnCl2.
Assay [3] has as its system Avian myeloblastosis virus. In words: Inhibition of AMV reverse transcriptase at 6 to 12 ug/ml.
The subject of assay [4] is Avian myeloblastosis virus. In words: Inhibition of AMV reverse transcriptase assessed as [3H]dGTP incorporation at 5 ug by toluene-based scintillation fluid counting in presence of poly rC.oligo dG template primer.
For assay [5], the system named is JLS-V9. The assay can be described thus: Inhibition of reverse transcriptase from Rauscher murine leukemia virus propagated in JLS-V9 cells at 5 to 10 ug/ml. It is filed as cell-based.
Assay [6] relates to Avian myeloblastosis virus. In words: Inhibition of AMV reverse transcriptase assessed as [3H]TMP incorporation by toluene-based scintillation fluid counting.
In assay [7] the test system is JLS-V9. In words: Inhibition of reverse transcriptase from Rauscher murine leukemia virus propagated in JLS-V9 cells at 6 to 18 ug/ml. It counts as cell-based.
Assay [8] has as its system Avian myeloblastosis virus. The assay can be described thus: Inhibition of AMV reverse transcriptase at 30 to 40 ug/ml.
Assay [9] has as its system JLS-V9. The assay can be described thus: Inhibition of reverse transcriptase from MuLV propagated in JLS-V9 cells at 30 to 40 ug/ml. It counts as cell-based. The conditions noted are these: Rauscher murine leukemia virus.
For assay [10], the system named is Avian myeloblastosis virus. The assay can be described thus: Inhibition of AMV reverse transcriptase assessed as [3H]TTP incorporation by toluene-based scintillation fluid counting in presence of 0.10 umole MnCl2.
Assay [11] concerns Avian myeloblastosis virus. In words: Inhibition of AMV reverse transcriptase assessed as [3H]TTP incorporation at 5 ug by toluene-based scintillation fluid counting in presence of template primer.
In assay [12] the test system is JLS-V9. In words: Inhibition of reverse transcriptase from Rauscher murine leukemia virus propagated in JLS-V9 cells at 40 to 60 ug/ml. It is filed as cell-based.
The subject of assay [13] is Avian myeloblastosis virus. The assay can be described thus: Inhibition of AMV reverse transcriptase assessed as [3H]TTP incorporation at 5 ug by toluene-based scintillation fluid counting in presence of poly dA.oligo dT template primer.
Assay [14] concerns Avian myeloblastosis virus. The assay can be described thus: Inhibition of AMV reverse transcriptase assessed as [3H]TTP incorporation at 5 ug by toluene-based scintillation fluid counting in presence of poly rA.oligo dT template primer.
Assay [15] concerns Avian myeloblastosis virus. In words: Inhibition of AMV reverse transcriptase assessed as [3H]TTP incorporation at 5 ug by toluene-based scintillation fluid counting in presence of 70S RNA template primer.
Assay [16] concerns Avian myeloblastosis virus. In words: Inhibition of AMV reverse transcriptase assessed as [3H]TTP incorporation at 5 ug by toluene-based scintillation fluid counting in presence of activated DNA template primer.
Assay [17] relates to Avian myeloblastosis virus. The assay can be described thus: Inhibition of AMV reverse transcriptase at 45 to 50 ug/ml.
Assay [18] relates to Avian myeloblastosis virus. In words: Inhibition of AMV reverse transcriptase at 40 to 50 ug/ml.
Assay [19] relates to Avian myeloblastosis virus. The assay can be described thus: Inhibition of AMV reverse transcriptase at 12 to 18 ug/ml.
Assay [20] deals with Avian myeloblastosis virus. The assay can be described thus: Inhibition of AMV reverse transcriptase at 50 to 60 ug/ml.

Turning to `COc1cc2c(ccc3c4cc(OC)c(OC)cc4c[n+](C)c23)cc1O`, the result in [1] was inactive. The outcome (in assay [2]; in [4]; in the assay with JLS-V9 [5]; in [6]; with JLS-V9 [7]; in [10]) was Active. Further, the result in [11] was Active. Moreover, the inhibition (commonly the change of the read-out against control, counted positive when it falls) in assay [3] is 50%; in [8] it was more than 90%; with JLS-V9 [9], more than 90%.
Turning to `COc1cc2ccc3c4cc5c(cc4c(OC)[n+](C)c3c2cc1OC)OCO5`, the outcome in assay [1] was inactive. In addition, the outcome (in the assay on JLS-V9 [12]; in assay [2]; with JLS-V9 [5]; in assay [10]) was Active. For the same molecule, the inhibition in [13] is 94%; in assay [4] it was 2%; in assay [14], 95%; in [15], 92%; in [16], 93%; in assay [17], 50%.
Consider `COc1cc2c[n+](C)c3c4cc5c(cc4ccc3c2cc1OC)OCO5`, for which the result in [1] was inactive. Moreover, the outcome (with JLS-V9 [12]; in assay [2]; in assay [4]; in the assay on JLS-V9 [5]; in assay [6]; in [10]) was Active. Besides, the result in [11] was Active. Besides, the inhibition in assay [18] was 50%.
As for `COc1cc2ccc3c4cc(OC)c(OC)cc4c(OC)[n+](C)c3c2cc1OC`, in assay [1], the result was inactive. Further, the outcome (in assay [2]; in the assay on JLS-V9 [5]; with JLS-V9 [7]; in assay [10]) was Active. The inhibition in assay [13] is 97%; in assay [4], 3%; in assay [14] it was 98%; in assay [15], 95%; in assay [8], more than 90%; in assay [16] it was 96%. For the same molecule, the inhibition in assay [19] was 50%; with JLS-V9 [9] it was more than 90%.
Consider `COc1cc2c(cc1OC)C(OC)N(C)c1c-2ccc2cc3c(cc12)OCO3.O=C(O)Br` (stereo not given), for which the result in assay [1] was inactive. Also, the result (in the assay with JLS-V9 [12]; in assay [2]; in the assay with JLS-V9 [5]; in assay [10]) was Active. Further, the inhibition in assay [13] was found to be 93%; in assay [4], 2%; in [14], 94%; in assay [15] it was 91%; in assay [20], 50%; in [16], 92%.
